{
  "source": "patent US20200001120A1",
  "about": "“APPARATUS, METHOD, AND USE FOR ULTRASOUND MEDIATED MICROBUBBLE DELIVERY OF PHARMACEUTICAL COMPOSITIONS” (priority 2017, published 2020)",
  "system": "E. coli",
  "assay": "E. coli pneumonia in mice: gentamicin with or without USMB, cfu in lung homogenates",
  "format": "in vivo, C57BL/6 mice",
  "method": "To establish whether USMB enhances antibiotic delivery to the injured lung, gentamicin (1.5 mg/kg) was administered to mice by intraperitoneal injection 6 hours after infection with E. coli to determine whether USMB conferred any additional benefit to treatment with antibiotics or microbubbles alone. This relatively low dose of gentamicin was chosen as it is relatively slow and achieves incomplete clearance of lung pathogens and thus allows any benefit of USMB to become apparent. In humans, high doses of gentamicin are known to cause nephro- and ototoxicity, making it contraindicated for human use at high doses.\nC57BL/6 mice were infected intratracheally with 1×10^7 colony forming units (cfu) of E. coli and received 1.5 mg/kg of gentamicin by intraperitoneal injection 6 hours later. Thirty minutes later, the mice were then injected intravenously with 1×10^9 microbubbles (Definity™) by tail vein. (Definity™ is an approved microbubble preparation that is used for diagnostic imaging in intensive care unit patients.) This was followed by thoracic ultrasound administration for five minutes. The ultrasound treatment conditions were the same as those used in Example 1. Eighteen hours later, mice were euthanized by cervical dislocation and lungs were homogenized for cfu. Lung homogenates were plated on agar to measure bacterial growth. Each experiment was repeated twice with 3 mice per group. Control mice received microbubbles and antibiotic without ultrasound (MB+ antibiotics) or antibiotics alone (PBS and antibiotics). Other control mice received no antibiotics. […] Data are mean plus SEM (SD if <3 mice) with each dot representing a separate animal. Note the >1 log-fold reduction in cfu in the mice receiving USMB with antibiotics (left-most group) compared to microbubbles/antibiotics alone. An ELISA performed on lung homogenates and plasma measures gentamicin levels.",
  "data": [
    {"substance": "gentamicin", "values": [
      {"measurement": "reduction in cfu in lung homogenates", "setting": "gentamicin 1.5 mg/kg i.p. plus USMB vs microbubbles/antibiotics alone, 18 hours later", "value": "> 1", "unit": "log-fold"},
      {"measurement": "reduction in bacterial growth caused by USMB", "setting": "gentamicin 1.5 mg/kg i.p. plus USMB, both replicates", "value": 10, "unit": "fold"},
      {"measurement": "bacterial colony forming units (cfu)", "setting": "gentamicin alone, 1.5 mg/kg i.p.", "value": "reduction"},
      {"measurement": "benefit over antibiotics alone", "setting": "microbubbles and antibiotics without ultrasound", "value": "no benefit"}
    ]}
  ]
}
